Data taken from EP3442964B1, “NOVEL N-[(PYRIMIDINYLAMINO)PROPANYL]-AND N [(PYRAZINYLAMINO)PROPANYL]ARYLCARBOXAMIDES” (Boehringer Ingelheim International GmbH, priority 2016, dated 2017).
Like-named read-outs stand apart in the source and are kept apart here.

Legend:
human MDR1 P-gp = target: T1, human MDR1 P-gp (Homo sapiens, UniProt P08183); assay: Assay D: efflux in MDCK cells transfected with the human MDR1 gene; assay type: in vitro ADME; details: MDCK-MDR1 monolayers, pH 7.4, 37°C
T1 construct: expressed in transfected cells; host or cells: MDCK (MDCK-MDR1)
T1 sequence (P08183 whole entry): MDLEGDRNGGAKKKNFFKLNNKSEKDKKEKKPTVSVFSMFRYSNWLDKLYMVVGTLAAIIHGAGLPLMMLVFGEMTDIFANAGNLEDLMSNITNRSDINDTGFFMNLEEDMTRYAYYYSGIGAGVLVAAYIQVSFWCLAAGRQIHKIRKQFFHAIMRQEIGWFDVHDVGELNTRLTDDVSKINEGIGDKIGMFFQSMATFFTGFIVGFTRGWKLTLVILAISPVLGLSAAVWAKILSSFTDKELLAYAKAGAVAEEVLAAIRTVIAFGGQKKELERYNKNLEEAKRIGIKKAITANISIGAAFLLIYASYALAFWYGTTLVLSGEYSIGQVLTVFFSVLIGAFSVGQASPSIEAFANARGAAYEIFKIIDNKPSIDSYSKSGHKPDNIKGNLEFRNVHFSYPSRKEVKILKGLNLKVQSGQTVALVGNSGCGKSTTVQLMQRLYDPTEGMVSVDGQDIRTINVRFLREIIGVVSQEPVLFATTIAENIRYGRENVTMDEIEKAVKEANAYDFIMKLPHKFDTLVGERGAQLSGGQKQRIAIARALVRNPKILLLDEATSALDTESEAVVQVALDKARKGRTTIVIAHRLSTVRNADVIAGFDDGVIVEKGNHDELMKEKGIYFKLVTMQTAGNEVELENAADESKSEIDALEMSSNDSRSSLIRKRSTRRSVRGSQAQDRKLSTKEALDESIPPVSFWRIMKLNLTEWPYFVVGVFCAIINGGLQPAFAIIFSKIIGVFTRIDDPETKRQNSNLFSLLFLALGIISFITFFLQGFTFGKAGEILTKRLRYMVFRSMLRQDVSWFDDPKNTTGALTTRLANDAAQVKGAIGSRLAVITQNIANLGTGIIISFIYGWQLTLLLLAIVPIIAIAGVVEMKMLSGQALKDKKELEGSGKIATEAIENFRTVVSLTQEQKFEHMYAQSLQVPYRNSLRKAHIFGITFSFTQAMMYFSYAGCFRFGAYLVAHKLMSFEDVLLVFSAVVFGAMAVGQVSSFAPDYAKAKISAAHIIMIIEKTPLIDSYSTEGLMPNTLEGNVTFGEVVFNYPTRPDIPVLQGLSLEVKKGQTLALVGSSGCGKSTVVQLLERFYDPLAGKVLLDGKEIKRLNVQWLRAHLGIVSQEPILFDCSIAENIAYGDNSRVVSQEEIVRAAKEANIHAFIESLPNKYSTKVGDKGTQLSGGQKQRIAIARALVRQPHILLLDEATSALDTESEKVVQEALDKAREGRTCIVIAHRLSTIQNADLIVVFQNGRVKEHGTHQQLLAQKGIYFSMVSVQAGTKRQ
Experimental: The MDCK assay provides information on the potential of a compound to pass the blood brain barrier. Permeability measurements across polarized, confluent MDCK-MDR1 cell monolayers grown on permeable filter supports are used as an in vitro absorption model: apparent permeability coefficients (PE) of the compounds across the MDCK-MDR1 cell monolayers are measured (pH 7.4, 37°C) in apical-to-basal (AB) and basal-to-apical (BA) transport direction. The AB permeability (PEAB) represents drug absorption from the blood into the brain and the BA permeability (PEBA) drug efflux from the brain back into the blood via both, passive permeability as well as active transport mechanisms mediated by efflux and uptake transporters that are expressed on the MDCK-MDR1 cells, predominantly by the overexpressed human MDR1 P-gp. Identical or similar permeabilities in both transport directions indicate passive permeation, vectorial permeability points to additional active transport mechanisms. Higher PEBA than PEAB (PEBA/PEAB > 5) indicates the involvement of active efflux mediated by MDR1 P-gp, which might compromises the goal to achieve sufficient brain exposure. Therefore this assay provides valuable support for selection of compounds applicable for further in vivo testing. High permeability not limited by efflux at the blood brain barrier is a favourable characteristic for compounds that are to be used for drugs acting primarily in the CNS
Apparent permeability coefficients (PE) of the compounds across the MDCK-MDR1 cell monolayers are measured (pH 7.4, 37°C) in apical-to-basal (AB) and basal-to-apical (BA) transport direction. AB permeability (PEAB) represents drug absorption from the blood into the brain and BA permeability (PEBA) drug efflux from the brain back into the blood via both passive permeability as well as active transport mechanisms mediated by efflux and uptake transporters that are expressed on the MDCK-MDR1 cells, predominantly by the overexpressed human MDR1 P-gp. The compounds are assigned to permeability/absorption classes by comparison of the AB permeabilities with the AB permeabilities of reference compounds with known in vitro permeability and oral absorption in the human. Identical or similar permeabilities in both transport directions indicate passive permeation, vectorial permeability points to additional active transport mechanisms. Higher PEBA than PEAB indicates the involvement of active efflux mediated by MDR1 P-gp. Active transport is concentration- dependently saturable.
MDCK-MDR1 cells (1-2 x 10e5 cells/1 cm2 area) are seeded on filter inserts (Costar transwell polycarbonate or PET filters, 0.4 µm pore size) and cultured (DMEM) for 7 days. Subsequently, the MDR1 expression is boosted by culturing the cells with 5 mM sodium butyrate in full medium for 2 days. Compounds are dissolved in appropriate solvent (like DMSO, 1 -20 mM stock solutions). Stock solutions are diluted with HTP-4 buffer (128.13 mM NaCl, 5.36 mM KCI, 1 mM MgSO4, 1.8 mM CaCl2, 4.17 mM NaHCO3, 1.19 mM Na2HPO4 x 7H2O, 0.41 mM NaH2PO4xH2O, 15 mM HEPES, 20 mM glucose, 0.25 % BSA, pH 7.4) to prepare the transport solutions (0.1 - 300 µM compound, final DMSO <= 0.5 %). The transport solution (TL) is applied to the apical or basolateral donor side for measuring A-B or B-A permeability (3 filter replicates), respectively. The receiver side contains the same buffer as the donor side. Samples are collected at the start and end of experiment from the donor and at various time intervals for up to 2 hours also from the receiver side for concentration measurement by HPLC-MS/MS or scintillation counting. Sampled receiver volumes are replaced with fresh receiver solution.

human orexin 2 receptor = target: T2, human orexin 2 receptor (Homo sapiens, UniProt O43614); assay type: cell-based
T2 sequence (O43614 1-444): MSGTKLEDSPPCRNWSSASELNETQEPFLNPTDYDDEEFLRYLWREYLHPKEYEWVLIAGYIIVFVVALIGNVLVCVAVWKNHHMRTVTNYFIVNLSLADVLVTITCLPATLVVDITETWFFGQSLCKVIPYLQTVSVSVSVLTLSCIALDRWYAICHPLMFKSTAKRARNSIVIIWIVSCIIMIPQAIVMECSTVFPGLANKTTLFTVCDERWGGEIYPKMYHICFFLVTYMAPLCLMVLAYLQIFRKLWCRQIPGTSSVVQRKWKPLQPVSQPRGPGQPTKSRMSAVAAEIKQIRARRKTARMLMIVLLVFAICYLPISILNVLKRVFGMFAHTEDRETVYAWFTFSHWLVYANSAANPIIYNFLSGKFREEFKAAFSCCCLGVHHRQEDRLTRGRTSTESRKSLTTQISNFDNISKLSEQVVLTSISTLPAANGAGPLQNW
From the text: Chem. Genomics 2009, 3, 22-32.

[1] = Assay C: metabolic stability in human liver microsomes (human MST); assay type: in vitro ADME; details: pooled human liver microsomes, pH 7.6, 1 µM test compound, 37°C
From the text: Stability in human liver microsomes refers to the susceptibility of compounds to biotransformation in the context of selecting and/or designing drugs with favorable pharmacokinetic properties. The primary site of metabolism for many drugs is the liver. Human liver microsomes contain the cytochrome P450s (CYPs), and thus represent a model system for studying drug metabolization in vitro. Enhanced stability in human liver microsomes is associated with several advantages, including increased bioavailability and longer half-life, which can enable lower and less frequent dosing of patients. Thus, enhanced stability in human liver microsomes is a favorable characteristic for compounds that are to be used for drugs.
The metabolic stability of the compounds according to the invention may be investigated as follows: The metabolic degradation of the test compound is assayed at 37°C with pooled human liver microsomes. The final incubation volume of 100 µL per time point contains TRIS buffer pH 7.6 at room temperature (0.1 M), MgCl2 (5 mM), microsomal protein (1 mg/mL) and the test compound at a final concentration of 1 µM. Following a short pre-incubation period at 37°C , the reactions are initiated by addition of beta-nicotinamide adenine dinucleotide phosphate, reduced form (NADPH, 1 mM), and terminated by transferring an aliquot into solvent after different time points. After centrifugation (10000 g, 5 min), an aliquot of the supernatant is assayed by LC-MS/MS for the amount of parent compound. The half-life (t1/2) is determined by the slope of the semi-logarithmic plot of the concentration-time profile.

OX2R = target: T3, OX2R (Homo sapiens, UniProt O43614); details: cited from earlier work; for OX2R pIC50: Table 3 of WO2016/034882; for IC50: corresponds to pIC50 of Table 3 of WO2016/034882
T3 sequence (O43614 1-444): T2 sequence (O43614 1-444)

[2] = read-out: Assay D:MDCK efflux ratio (BA/AB)
[3] = read-out: Assay C: Human MST t1/2
[4] = read-out: Data as determined in Assay C: Human MST t1/2

Row | Compound | efflux ratio (human MDR1 P-gp; [2]) | Kb (human orexin 2 receptor; 0.5 nM Orexin A) [nM] | half-life at 1 µM [1, 3] [h] | further results
1 | CCN(C(=O)c1ccc(F)cc1-n1nccn1)[C@@H](C)CNc1ncc(C(F)(F)F)cn1 [Example 2] | < 3 | 64.5 | 0.717 | –
2 | CCN(C(=O)c1ccc(F)c(F)c1-n1nccn1)[C@@H](C)CNc1ncc(C(F)(F)F)cn1 [Example 4] | < 3 | 46.9 | 1.58 | –
3 | CCN(C(=O)c1cc(F)ccc1-n1nccn1)[C@@H](C)CNc1ncc(C(F)(F)F)cn1 [Example 5] | < 3 | 35.3 | 2 | –
4 | Cc1nc(C(=O)N(C)CCNc2ncc(Br)cn2)c(-c2ccc(F)cc2)s1 [Example 6 in WO03/051872, reference compound] | – | – | 0.133 | efflux ratio (human MDR1 P-gp; read-out: Assay D: MDCK efflux ratio (BA/AB)): 0.8; Kb (human orexin 2 receptor; 0.5 nM Orexin A concentration, read-out: Assay B: OX2R Kb): 101 nM
5 | CCN(C(=O)c1c(F)cccc1-n1nccn1)[C@@H](C)CNc1ncc(C(F)(F)F)cn1 [Example 7] | < 3 | 33.4 | 1.27 | –
6 | CCN(C(=O)c1cc(C#N)ccc1-n1nccn1)[C@@H](C)CNc1ncc(C(F)(F)F)cn1 [Example 8] | 3 to 5 | 33.4 | > 2 | –
7 | CCN(C(=O)c1cc(F)cnc1-n1nccn1)[C@@H](C)CNc1ncc(C(F)(F)F)cn1 [Example 10] | < 3 | 1060 | > 2 | –
8 | CCN(C(=O)c1cccc(F)c1-c1ncccn1)[C@@H](C)CNc1ncc(C(F)(F)F)cn1 [Example 11] | 3 to 5 | 19.3 | > 2 | –
9 | CCN(C(=O)c1nc(C)ccc1-n1cccn1)[C@@H](C)CNc1ncc(C(F)(F)F)cn1 [Example 12] | < 3 | 129 | 1.08 | –
10 | CCN(C(=O)c1c(F)cccc1-c1ncccn1)[C@@H](C)CNc1ncc(C(F)(F)F)cn1 [Example 13] | < 3 | 62 | > 2 | –
11 | C[C@@H](CNc1ccc(Cl)cn1)N(C)C(=O)c1ccccc1-c1ccccc1 [Example 14 in WO2016/034882, reference compound] | – | – | 0.0333 | –
12 | CCN(C(=O)c1ccccc1-c1noc(C)n1)[C@@H](C)CNc1ncc(C(F)(F)F)cn1 [Example 14] | < 3 | 44 | 1.52 | –
13 | CCN(C(=O)c1cc(F)ccc1-c1ncccn1)[C@@H](C)CNc1ncc(C(F)(F)F)cn1 [Example 15] | < 3 | 22.9 | > 2 | –
14 | CCN(C(=O)c1ccc(F)cc1-c1ncccn1)[C@@H](C)CNc1ncc(C(F)(F)F)cn1 [Example 16] | < 3 | 76.8 | 1.67 | –
15 | CCN(C(=O)c1ncccc1-c1ccccc1)[C@@H](C)CNc1ncc(C(F)(F)F)cn1 [Example 19] | < 3 | 12.5 | > 2 | –
16 | CCN(C(=O)c1cncnc1-c1ccccc1)[C@@H](C)CNc1ncc(C(F)(F)F)cn1 [Example 20] | < 3 | 68 | 0.717 to 1.67 | –
17 | CCN(C(=O)c1nccnc1-c1ccccc1)[C@@H](C)CNc1ncc(C(F)(F)F)cn1 [Example 21] | < 3 | 55.9 | > 2 | –
18 | CCN(C(=O)c1ccccc1-n1nccn1)[C@@H](C)CNc1cnc(C(F)(F)F)cn1 [Example 22] | 3 to 5 | 7.37 | > 2 | –
19 | CCN(C(=O)c1ccc(F)cc1-c1nnc(C)o1)[C@@H](C)CNc1cnc(C(F)(F)F)cn1 [Example 23] | 3 to 5 | 222 | > 2 | –
20 | CCN(C(=O)c1cccc(F)c1-n1nccn1)[C@@H](C)CNc1cnc(C(F)(F)F)cn1 [Example 24] | 3 to 5 | 10 | 1.02 | –
21 | CCN(C(=O)c1nc(C)ccc1-c1ncccn1)[C@@H](C)Cn1nnc(-c2ccc(F)cc2)n1 [Example 69 in WO2013/187466, reference compound] | – | – | – | half-life at 1 µM [1, 4]: 0.383 h
22 | CCN(C(=O)c1cc(F)ccc1-c1ncccn1)[C@@H](C)Cn1nnc(-c2ccc(F)cc2)n1 [Example 70 in WO2013/187466, reference compound] | – | – | – | half-life at 1 µM [1, 4]: 0.267 h
23 | CC[C@@H](CNc1ncc(C(F)(F)F)cn1)N(CC)C(=O)c1nc(C)ccc1-n1nccn1 [Example 73 in WO2016/034882] | – | – | 0.183 | OX2R pIC50 (OX2R): < 6.0; IC50 (OX2R): > 1000 nM
24 | CC[C@@H](CNc1ncc(C(F)(F)F)cn1)N(C)C(=O)c1nc(C)ccc1-c1ncccn1 [Example 84 in WO2016/034882] | < 3 | – | 0.683 | OX2R pIC50 (OX2R): 6.0; IC50 (OX2R): 1000 nM
